# Measured values reported in patent US10934282B2, “Heteroaromatic modulators of the retinoid-related orphan receptor gamma” (LEO PHARMA A/S, priority 2016, dated 2021).
# Columns and labels:
# [1] = system: IL-17A in Human peripheral mononuclear cells; assay: Human PBMC IL-17A assay; assay type: cell-based; details: 72 h, EC50, antiCD3/antiCD28-coated beads, 3 days, alpha-LISA
# Method: This assay measures the IL-17A inhibitory potential of test compounds in Human peripheral mononuclear cells.
# Peripheral blood mononuclear cells (PBMC) were isolated from human buffy coats using density grade centrifugation (Lymphoprep, Medinor), washed twice in PBS and frozen at −150° C. for later use.
# Test compounds were diluted in DMSO and 70 nL of titrated test and reference compounds were transferred by the Echo liquid handling system to a 384-well assay plate in to give a final concentration of 0.1% DMSO in the wells.
# The PBMC were thawed, washed and suspended in RPMI-1640 supplemented with pen/strep, glutamax and 10% bovine calf serum. The cells were mixed with antiCD3/antiCD28-coated beads (1 cells pr one bead) (Milteney T-cell expansion kit), and immediately thereafter the cells were pipetted to the plate at 130,000c/well. The plate was incubated for 3 days in humidified air/CO2 (95%/5%) On day 3 the level of IL-17A in the culture supernatant is measured using alpha-LISA kit (Perkin Elmer). Cell viability was measured by adding 6 uL pr well Prestoblue© (Life Technologies) and incubating for 2 hours followed by fluorescent measurement (Ex535/Em615). EC50 values were calculated using a 4-parameter non-linear regression curve-fitting model. Donors may be pre-screened in order to select PBMC with a high secretion of IL-17A.
# [2] = system: IL-17A levels in human peripheral blood; assay: tissue or blood; assay type: cell-based; details: 72 h, read-out: Human Whole blood IL-17A (nM)
# [3] = molecular target: T1, human RORgt nuclear receptor (RORgT ligand binding domain protein) (Homo sapiens, UniProt P51449); assay: ROR-gamma binding assay (Scintillation Proximity Assay, displacement of [3H]-25-hydroxycholesterol); details: EC50, SPA, 15 nM [3H]-25-Hydroxycholesterol, RORgT LBD 12 nM
# T1 construct: purchased Proteros Biostructures GmbH
# T1 sequence (P51449 with tags, fused parts or gaps): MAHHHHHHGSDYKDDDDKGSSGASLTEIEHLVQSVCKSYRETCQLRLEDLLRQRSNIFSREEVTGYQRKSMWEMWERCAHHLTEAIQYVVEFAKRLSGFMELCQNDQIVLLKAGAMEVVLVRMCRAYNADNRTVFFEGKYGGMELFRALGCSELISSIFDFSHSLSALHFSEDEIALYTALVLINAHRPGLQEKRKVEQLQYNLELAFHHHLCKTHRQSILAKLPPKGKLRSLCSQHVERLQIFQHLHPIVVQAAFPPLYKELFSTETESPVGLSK
# Method: This assay is used to evaluate the binding affinity of compounds to the ligand-binding pocket of the human RORgt nuclear receptor based on displacement of a radio-ligand. The EC50 values are calculated using a four parameter fit. Compounds binding with high affinity to RORgt will have low EC50 values.
# The assay is a Scintillation Proximity Assay (SPA) that involves competition between an unlabeled test compound and tritium-labeled 25-hydroxycholesterol for binding to RORgT ligand binding domain (LBD) protein immobilized on the surface of SPA beads. These beads contain a scintillant that emits light if excited by a radioactive particle, and this light is detected using a scintillation counter. In this assay, tritium-labelled 25-hydroxycholesterol is used as radiotracer.
# 400 nL of titrated test and reference compounds in DMSO were transferred by the Echo liquid handling system to a 384-well assay plate followed by addition of 5 μL [3H]-25-Hydroxycholesterol (Perkin Elmer) and 35 μL diluted RORgT LBD protein with the following amino acid sequence (HIS-FLG-tag): MAHHHHHHGSDYKDDDDKGSSGASLTEIEHLVQSVCKSYRETCQLRLEDLLRQRSNIFSREEVTGYQRKSMWEMWERCAHHLTEAIQYVVEFAKRLSGFMELCQNDQIVLLKAGAMEVVLVRMCRAYNADNRTVFFEGKYGGMELFRALGCSELISSIFDFSHSLSALHFSEDEIALYTALVLINAHRPGLQEKRKVEQLQYNLELAFHHHLCKTHRQSILAKLPPKGKLRSLCSQHVERLQIFQHLHPIVVQAAFPPLYKELFSTETESPVGLSK (SEQ ID NO: 1) (Purchased from Proteros Biostructures GmbH). After 30 min of preincubation, 40 μL of HIS-TAG PVT SPA beads (Perkin Elmer) were added. The plates were then incubated for minimum 4 hours at room temperature in darkness before measuring the SPA signal using a MicroBeta plate scintillation counter. Final assay conditions were: 50 mM HEPES pH 7.4, 150 mM NaCl, 5 mM MgCl2, 0.1% BSA, 4 μg/well HIS-TAG PVT SPA Beads, 30 ng/well RORgT LBD (equal to a final concentration of 12 nM), 15 nM [^3H]-25-Hydroxycholesterol, 0.5% DMSO and varying concentrations of test compound in a total volume of 80 μL/well. EC50 values were calculated using a 4-parameter non-linear regression curve-fitting model.
Structure (SMILES),EC50 [1],EC50 [2],EC50 [3]
"COCc1nnc(Nc2cc(Cl)cc(CN3CCN(C(=O)C4CCCC4)[C@@H](C)C3)c2C)o1 [Example 13, [(2S)-4-[[5-chloro-3-[[5-(methoxymethyl)-1,3,4-oxadiazol-2-yl]amino]-2-methyl-phenyl]methyl]-2-methyl-piperazin-1-yl]-cyclopentyl-methanone]",48.9 nM,112 nM,14.7 nM
"Cc1cc(CN2CCN(C(=O)C3CCC3)[C@@H](C)C2)c(C)c(Nc2nnc(C)o2)c1 [Example 14, cyclobutyl-[(2S)-4-[[2,5-dimethyl-3-[(5-methyl-1,3,4-oxadiazol-2-yl)amino]phenyl]methyl]-2-methyl-piperazin-1-yl]methanone]",185 nM,372 nM,61.1 nM
"Cc1cc(CN2CCN(C(=O)C3CCC3)[C@@H](C)C2)c(C)c(Nc2nnc(CC#N)o2)c1 [Example 15, 2-[5-[3-[[(3S)-4-(cyclobutanecarbonyl)-3-methyl-piperazin-1-yl]methyl]-2,5-dimethyl-anilino]-1,3,4-oxadiazol-2-yl]acetonitrile]",101 nM,421 nM,63.8 nM
"Cc1cc(CN2CCN(C(=O)C3CC3)[C@@H](C)C2)c(C)c(Nc2nnc(CC#N)o2)c1 [Example 16, 2-[5-[3-[[(3S)-4-(cyclopropanecarbonyl)-3-methyl-piperazin-1-yl]methyl]-2,5-dimethyl-anilino]-1,3,4-oxadiazol-2-yl]acetonitrile]",237 nM,206 nM,223 nM
"Cc1cc(CN2CCN(C(=O)C3CCC(F)(F)C3)[C@@H](C)C2)c(C)c(Nc2nnc(CC#N)o2)c1 (stereo partly drawn) [Example 17, 2-[5-[3-[[(3S)-4-(3,3-difluorocyclopentanecarbonyl)-3-methyl-piperazin-1-yl]methyl]-2,5-dimethyl-anilino]-1,3,4-oxadiazol-2-yl]acetonitrile]",230 nM,131 nM,54.5 nM
"Cc1c(CN2CCN(C(=O)C3CCCC3)[C@@H](C)C2)cc(Cl)cc1Nc1nnc(CC#N)o1 [Example 18, 2-[5-[5-chloro-3-[[4-(cyclopentanecarbonyl)-3-methyl-piperazin-1-yl]methyl]-2-methyl-anilino]-1,3,4-oxadiazol-2-yl]acetonitrile]",69.8 nM,203 nM,21.2 nM
"Cc1cc(CN2CCN(C(=O)C3CCC3)[C@@H](C)C2)c(C)c(Nc2nnc([C@@H](C)O)o2)c1 [Example 19, cyclobutyl-[(2S)-4-[[3-[[5-[(1R)-1-hydroxyethyl]-1,3,4-oxadiazol-2-yl]amino]-2,5-dimethyl-phenyl]methyl]-2-methyl-piperazin-1-yl]methanone]",117 nM,216 nM,92.3 nM
"Cc1cc(CN2CCN(C(=O)C3CCC3)[C@@H](C)C2)c(C)c(Nc2nnc([C@H](C)O)o2)c1 [Example 20, cyclobutyl-[(2S)-4-[[3-[[5-[(1S)-1-hydroxyethyl]-1,3,4-oxadiazol-2-yl]amino]-2,5-dimethyl-phenyl]methyl]-2-methyl-piperazin-1-yl]methanone]",189 nM,259 nM,113 nM
"CCC(F)(F)C(=O)N1CCN(Cc2cc(C)cc(Nc3nnc([C@@H](C)O)o3)c2C)C[C@@H]1C [Example 21, 2,2-difluoro-1-[(2S)-4-[[3-[[5-[(1R)-1-hydroxyethyl]-1,3,4-oxadiazol-2-yl]amino]-2,5-dimethyl-phenyl]methyl]-2-methyl-piperazin-1-yl]butan-1-one]",180 nM,251 nM,71.7 nM
"Cc1cc(CN2CCN(C(=O)C3CC3)[C@@H](C)C2)c(C)c(Nc2nnc([C@@H](C)O)o2)c1 [Example 22, cyclopropyl-[(2S)-4-[[3-[[5-[(1R)-1-hydroxyethyl]-1,3,4-oxadiazol-2-yl]amino]-2,5-dimethyl-phenyl]methyl]-2-methyl-piperazin-1-yl]methanone]",254 nM,355 nM,169 nM
"Cc1cc(CN2CCN(C(=O)C3CC3C)[C@@H](C)C2)c(C)c(Nc2nnc([C@@H](C)O)o2)c1 (stereo partly drawn) [Example 23, [(2S)-4-[[3-[[5-[(1R)-1-hydroxyethyl]-1,3,4-oxadiazol-2-yl]amino]-2,5-dimethyl-phenyl]methyl]-2-methyl-piperazin-1-yl]-(2-methylcyclopropyl)methanone]",368 nM,238 nM,125 nM
"Cc1cc(CN2CCN(C(=O)C3CCCC3)[C@@H](C)C2)c(C)c(Nc2nnc([C@@H](C)O)o2)c1 [Example 24, cyclopentyl-[(2S)-4-[[3-[[5-[(1R)-1-hydroxyethyl]-1,3,4-oxadiazol-2-yl]amino]-2,5-dimethyl-phenyl]methyl]-2-methyl-piperazin-1-yl]methanone]",35.9 nM,112 nM,38.6 nM
"Cc1cc(CN2CCN(C(=O)C3CCC(F)(F)C3)[C@@H](C)C2)c(C)c(Nc2nnc([C@@H](C)O)o2)c1 (stereo partly drawn) [Example 25, (3,3-difluorocyclopentyl)-[(2S)-4-[[3-[[5-[(1R)-1-hydroxyethyl]-1,3,4-oxadiazol-2-yl]amino]-2,5-dimethyl-phenyl]methyl]-2-methyl-piperazin-1-yl]methanone]",258 nM,191 nM,159 nM
"Cc1cc(CN2CCN(C(=O)CC3CCC3)[C@@H](C)C2)c(C)c(Nc2nnc([C@@H](C)O)o2)c1 [Example 26, 2-cyclobutyl-1-[(2S)-4-[[3-[[5-[(1R)-1-hydroxyethyl]-1,3,4-oxadiazol-2-yl]amino]-2,5-dimethyl-phenyl]methyl]-2-methyl-piperazin-1-yl]ethanone]",91.3 nM,119 nM,58.2 nM
"Cc1c(CN2CCN(C(=O)C3CCC3)[C@@H](C)C2)cc(C(F)F)cc1Nc1nnc([C@H](C)O)o1 [Example 27, cyclobutyl-[(2S)-4-[[5-(difluoromethyl)-3-[[5-[(1S)-1-hydroxyethyl]-1,3,4-oxadiazol-2-yl]amino]-2-methyl-phenyl]methyl]-2-methyl-piperazin-1-yl]methanone]",425 nM,457 nM,95.9 nM
"Cc1cc(CN2CCN(C(=O)OC(C)(C)C)[C@@H](C)C2)c(C)c(Nc2nnc([C@H]3C[C@@H](O)C3)o2)c1 [Example 29, tert-butyl (2S)-4-[[3-[[5-(3-hydroxycyclobutyl)-1,3,4-oxadiazol-2-yl]amino]-2,5-dimethyl-phenyl]methyl]-2-methyl-piperazine-1-carboxylate]",117 nM,422 nM,37.8 nM
"Cc1cc(CN2CCN(C(=O)OC(C)(C)C)[C@@H](C)C2)c(C)c(Nc2nnc(-c3cnnn3C)o2)c1 [Example 30, tert-butyl (2S)-4-[[2,5-dimethyl-3-[[5-(3-methyltriazol-4-yl)-1,3,4-oxadiazol-2-yl]amino]phenyl]methyl]-2-methyl-piperazine-1-carboxylate]",93.6 nM,239 nM,31.2 nM
